Source: US11951269B2, “Drug-coated medical devices” (Medtronic Vascular, Inc., priority 2018, dated 2024)

Experiments:
[1] = Solubility of DEX in various solvents; assay type: physicochemical
[2] = Ex-vivo model: coated balloon inflated against bovine carotid artery in simulated flow loop, drug by HPLC; settings: for tissue concentration average: bovine carotid artery ex vivo, n=5
Protocol: The coated balloons were inflated against tissue in an ex-vivo model. Briefly, the model included a bovine carotid artery mounted in a simulated flow loop comprising appropriately sized tubing. The system was maintained at 37° C. A standard hemostasis valve and 8 Fr introducer sheath are used to introduce the coated balloon into the tubing, the balloon is tracked through the sheath and tubing into the bovine carotid artery, and the balloon is deployed (inflated to approximately 1.1 B.A.R. and held for 60 s) against the bovine carotid artery tissue. The tissue and balloon are removed for analysis. […] Briefly, the amount of drug was measured by using HPLC of extracted solutions from testing specimens, such as utilizing a solvent to solubilize and remove all remaining drug from the balloon for analysis.

[3] = In vivo porcine model: coated balloon deployed in femoral arteries, drug concentration in tissue; settings: for concentration at 1 day / concentration at 28 days: pig, femoral artery tissue, porcine femoral arteries, n=18, read-out: median concentration in the tissue; for concentration at 28 days: after 28 days; for vessels in which drug was detectable: porcine
Protocol: In vivo studies are also performed. […] After 1 day, the median sirolimus concentration in the tissue is about 0.62 μg/g, and after 28 days the median concentration is about 0.07 μg/g (n=18).

| DEX solubility ([1]; solvent Acetone) [mg\mL] | DEX solubility ([1]; solvent Acetonitrile) [mg\mL] | DEX solubility ([1]; solvent Ethanol) [mg\mL] | DEX solubility ([1]; solvent Methanol) [mg\mL] | DEX solubility ([1]; solvent THF) [mg\mL] | tissue concentration average [2] | concentration at 1 day ([3]; after 1 day) [ng/g] | concentration at 28 days [3] [ng/g] | vessels in which drug was detectable ([3]; after 1 day) | vessels in which drug was detectable ([3]; day 28) | drug transferred to the tissue ([2]; sirolimus/urea first layer, DEX/urea second layer, bovine carotid artery, 37° C., inflated 60 s) | Structure (SMILES) |
| --- | --- | --- | --- | --- | --- | --- | --- | --- | --- | --- | --- |
| 12 | 10 | 8 | 15 | 30 | about 22.6 μg DEX/g of tissue | ~0.525 | ~0.5 | four of six vessels | two of six vessels |  | C[C@@H]1C[C@H]2[C@@H]3CCC4=CC(=O)C=C[C@]4(C)[C@@]3(F)[C@@H](O)C[C@]2(C)[C@@]1(O)C(=O)CO [DEX, dexamethasone] |
|  |  |  |  |  | about 25.9 μg sirolimus/g of tissue | ~620 | ~70 |  |  | About 1.7% | CO[C@H]1C[C@@H]2CC[C@@H](C)[C@@](O)(O2)C(=O)C(=O)N2CCCC[C@H]2C(=O)O[C@H]([C@H](C)C[C@@H]2CC[C@@H](O)[C@H](OC)C2)CC(=O)[C@H](C)/C=C(\C)[C@@H](O)[C@@H](OC)C(=O)[C@H](C)C[C@H](C)/C=C/C=C/C=C/1C [sirolimus] |
